We go through twelve molecules from patent US6794148B2, “High speed, automated, continuous flow, multi-dimensional molecular selection and analysis” (PerSeptive Biosystems, Inc., priority 1995, dated 2004).

One assay concerns mouse IgG (Fc fragment). Description: Solution phase peptide screening (SEC - reversed phase) of protein A and G digests. The conditions noted are these: native and denatured recombinant protein A and G digests. It is filed as binding. As to the method:
5 mg each of either mouse IgG (whole) or the Fc fragment was incubated with 20 mg of natural library and protein A and G digests, respectively. The mixture was dissolved in 1 ml of a mixture of 25 mM sodium phosphate buffer and 0.15 M NaCl (pH 7) overnight at 4° C. After incubation, several chromatographic runs through the Superdex SEC and RP columns were conducted with 200 of the protein and peptide mixture injected through the Superdex column during each run. The flow rate for the Superdex column was 0.75 m/min with the 25 mM sodium phosphate buffer and 0.15 M NaCl (pH 7) mixture. The early eluting protein peak was collected directly onto the RP column. The remaining portion of the peak was washed off the SEC. The mouse IgG (whole) or Fc fragment and its associated peptides were then eluted from the RP column under the following conditions:
Fractions corresponding to bound peptide peaks were lyophilized and redissolved in 1001 of 0.1% TFA/DIW for mass spec analysis by MALDI-TOF.

Another assay has as its system IgG. Nature of the assay: IgG purification from human serum on POROS-immobilized peptide column. It is filed as binding. As for the experimental part: 1 g POROS™ AL (aldehyde) was suspended in 10 mM PBS (pH 7.5) containing 100 mg sodium cyanoborohydride (NaCNBH3). 5 to 20 mg of each of the peptides selected by various screening procedures was added to the resin and the mixture was shaken overnight at room temperature. 100 mg sodium borohydride (NaBH4) was then added and the mixture was shaken for another 2 hrs. The beads were then washed with PBS and packed into 4.6 mm D×100 mm L column using POROS™ Self Pack® device.
100 μl of 1:10 diluted serum was injected onto the peptide column which was equilibrated with 20 mM tris (pH 8.0) at 5 ml/min. The bound proteins were eluted with 0-1 M NaCl gradient in 15 CVs. Fractions were collected manually and concentrated by Speed Vac for subsequent analysis by SDS-polyacrylamide gel electrophoresis.
The […] (SEQ ID NO: 8) peptide with heme group was immobilized on POROS™AL® (aldehyde) via the N-terminal end. This POROS™-peptide conjugate was used to separate IgG from serum at pH 8 under a 0-1 M NaCl gradient. […] To determine the nature of interaction, the purification profile of IgG separated on the POROS™-peptide column was compared with the IgG purified on standard ion exchange columns such as POROS™-CM and POROS™ HQ. […] The effect of the varying loading densities of peptide (from 10 mg/g POROS™ to 100 mg/g POROS™) on specificity and capacity for IgG binding was also investigated. The specificity of the peptide for IgG binding was also investigated. […] At low loading density (10 mg/g POROS™) IgG bound primarily via ionic interaction requiring elution of bound IgG with salt gradient. At higher loading density ([…]) IgG bound strongly and eluted with acid buffer. The binding capacity varied from 1-2 mg/ml column volume at lower ligand density to 30 mg/ml column volume at higher ligand densities.
A simplified analog of the heme peptide ([…]) (SEQ ID NO: 9) was synthesized and immobilized on POROS™ AL via the N-terminal end. […] The bound IgG was eluted from the GAQGHTVBK (SEQ ID NO: 9)-POROS™ column with 100 mM NaCl. The IgG binding capacity was determined to be 5 mg/ml column volume. Loading densities from 20 mg/g to 40 mg peptide /g POROS™ were evaluated. At these ligand densities, the specificity of IgG binding was not affected, but the capacity was reduced.

The next assay has as its system LPS (serotype O55;B5). Description: LPS binding, tandem weak anion exchange / reverse phase columns with varied wash volumes. The conditions noted are these: for wash volumes of column 1 needed to reduce peak by 50%: 1 CV=1.66 ml, 50 mM Tris pH 6.7; for retention on weak anion exchange column 1: with/without preincubation with LPS. The text has this:
We used a tandem column method employing POROS™ columns on a BioCAD™ 20 Workstation. Column 1 was a weak anion exchange column (PI/M; 4.6×100 mm) while column 2 was a reverse phase column (R2/H; 4.6×100 mm). […] LPS, however, would be expected to interact with this column due to the presence of two charged phosphate groups at the lipid A region of the molecule. […] Material retained on column 1 was eluted directly onto column 2 where it was captured. Elution of column 2 allowed the resolution of peaks arising from column 1.
Screening the library for binding to LPS was performed as follows. The cationic fraction of the XXXFL library was incubated (30 min/RT) with 1-3 mg/ml of LPS (serotype O55;B5; Sigma Chemical Co., St. Louis, Mo.) in 50 mM Tris, pH 6.7. At this time the incubation mixture was injected and run over column 1 on the BioCAD™ Workstation (equilibrated in the same buffer). The column was run at 4 ml/min. After washing with the appropriate number of column volumes of equilibration buffer (1 CV=1.66 ml), the column was purged and eluted (using 8 mM HCl, 1M NaCl) directly onto column 2 by switching the latter column in line with column 1 during the elution process. Material captured on column 2 was eluted using a gradient from 12 mM HCl in water to 80% ACN, 6 mM HCl. Peaks were collected, further purified by rerunning on a vydac C-18 column (4.6×250 mm), and analyzed by Mass Spectrometry (on a Voyager™ MALDI-TOF instrument; PerSeptive Biosystems, Framingham, Mass.) and peptide sequencing (Hewlett Packard). Peptides identified were synthesized and binding of these molecules to the Lipid A region of the LPS was confirmed by measuring the ability of PmxB or Pentamidine to compete with the peptide for this site.
The number of wash volumes required to reduce the peak for these agents correlated with the reported affinities of these agents for LPS; PmxB (Kd […]) was reduced 50% after 42 CVs washing of column 1 while pentamidine (Kd 100 nM) required a higher number of washes for a similar reduction (46 CVs). Using this methodology we could rapidly examine which peaks from the library were capable of binding to LPS with the highest affinity since, upon exposure to higher numbers of wash volumes only the peptides with higher affinity for the target were retained. […] Three such peaks from the XXXFL library and 3 peaks from the CXXXC library were further purified and characterized by MS and peptide sequencing. […] The other peptides will be synthesized and studied in a similar manner although another approach being considered is that a sublibrary of the format ZZZFL (where Z represents either R or K) be screened to identify the member with the highest affinity. Candidates purified from the cyclic library are still awaiting sequencing.

Assay [1] deals with monoclonal antibody (mouse IgG2a, clone 3E-7) raised against human β-endorphin. Nature of the assay: Peptide binding to immobilized anti-β-endorphin mAb affinity column in tandem with C-18 column. As to the method: The purchased mAb (280 mg resuspended in 1 ml H2O) was passed over an XL cartridge (2.1×30 mm) consisting of protein-G coupled to POROS™ perfusion chromatographic media (PerSeptive Biosystems, Framingham, Mass.) by making […] injections on a BioCAD™ 20 Workstation (PerSeptive Biosystems, Framingham, Mass.). Protein-G binds to the Fc region of antibodies with high affinity. The mAb was subsequently cross-linked to the protein G using the standard methods and materials provided with the XL column. In brief, this consisted of passing 14 ml of cross-linking solution (100 mM triethanolamine, pH 8.5, 7.8 mg/ml dimethyl pimelimidate (DMP)) over the column at a flow rate of 0.5 ml/mm. The cross-linking reagent was quenched by subsequent injection of 2 ml of 100 mM monoethanolamine, pH 9.0. The sensor cartridge was washed with PBS, pH 7.4 at 0.5 ml/min for 2 min followed by a further injection of 2 ml of quench solution and washed as above. […] A second XL column (without antibody) was treated with cross-linking reagents and washed as for the affinity column for use as a “control column”.
The target immobilized affinity column prepared above was plumbed in tandem mode to a vydac reversed phase C-18 column on a BioCAD™ Workstation using the configuration shown in FIG. 5. This configuration allowed independent equilibration and washing of the affinity and vydac columns while allowing in line elution of material bound to the mAb-column directly onto the vydac column. The reverse phase vydac column could then be eluted independently of the affinity column.
This reversed phase column was then developed with a gradient of acetonitrile (4% ACN/12 mM HCl to 80% ACN/6 mM HCl over 18 min; flow rate 1 ml/min). Both columns were re-equilibrated in their respective starting buffers prior to the next injection.
The peptide solution (20 nmol) was injected onto the affinity column and then unbound peptide was removed by washing the column with PBS, pH, 7.4. Peptides affinity captured by the antibody was eluted from the “target column” directly onto the C-18 column for resolution.

Assay [2] deals with Monoclonal antibody (mAb), mouse IgG2a, clone 3E-7, raised against human β-endorphin (mouse). Nature of the assay: increasing quantities of peptide injected on immobilized mAb column; peak height on C-18 column.
Assay [3] shares this target. Description: 20 nmol peptide injected on immobilized mAb column, acid eluted onto C-18 column; peak area.
A further assay concerns the target LPS. The conditions noted are these: read-out: Kd for LPS (reported affinity); cited from earlier work.
Assay [4] has as its target human IgG (whole), pure or from human serum (human). Nature of the assay: peptide immobilized on POROS AL via the N-terminal end; IgG binding capacity of the column.

As to “EKEPEVID (OTHER INFORMATION: Description of Artificial Sequence: Protein fragment derived from the tryptic digest of protein A and G) [peptide from recombinant Protein G digest]”, the “selected as binder in solution phase screening” value (shortened to “selected as binder”) in the assay on mouse IgG (Fc fragment) was “identified”. Regarding “GDAPTPEKEPEASI (OTHER INFORMATION: Description of Artificial Sequence: Protein fragment derived from the tryptic digest of protein A and G) [peptide from recombinant Protein G digest]”, the “selected as binder” value in the assay with mouse IgG (Fc fragment) is listed as “identified”.

Regarding “TVTEK (OTHER INFORMATION: Description of Artificial Sequence: Protein fragment derived from the tryptic digest of protein A and G)”, in the assay on IgG (salt gradient suffices for elution), the “IgG binding affinity relative to proteins A & G” value is “bind IgG, but with less affinity”. For the molecule “KKRFL (OTHER INFORMATION: Description of Artificial Sequence: synthetic peptide)”, the “affinity for LPS relative to Pentamidine” value in the assay with LPS (serotype O55;B5) is “much lower than the latter molecule”. In addition, the “competition for LPS binding” value in the assay with LPS (serotype O55;B5) (competition experiment with Pentamidine) is given as “displaced by Pentamidine”. Further, the “binding to LPS” value in the assay on LPS (serotype O55;B5) (synthesized peptide, same paradigm) is recorded as “demonstrated to bind to LPS”. For “YEYFL (OTHER INFORMATION: Description of Artificial Sequence: synthetic peptide)”, the “retention by the mAb affinity column” value in assay [1] (parallel experiment) was “not retained”. On to synthetic peptide YGGFL (SEQ ID NO: 1), for which the amount of the bound peptide at saturation in assay [2] was 1.2 nmol. This molecule also yielded an amount of the peptide recovered in assay [3] of 1.2 nmol. As to polymyxin B, in the assay with LPS (serotype O55;B5), the “wash volumes of column 1 needed to reduce peak by 50%” value turned out to be 42 CVs and the “retention on weak anion exchange column 1” value is reported as “retained on column 1 under the conditions used only after preincubation in the presence of LPS”.

In the case of `N=C(N)c1ccc(OCCCCCOc2ccc(C(=N)N)cc2)cc1` [pentamidine], in the assay with LPS (serotype O55;B5), the “wash volumes of column 1 needed to reduce peak by 50%” value amounted to 46 CVs and the “retention on weak anion exchange column 1” value is given as “retained on column 1 under the conditions used only after preincubation in the presence of LPS”. Moreover, the Kd (in general, the constant that tells how readily two partners part at equilibrium) at LPS is 100 nM.

With YGGFL, the “amount of the peptide recovered from affinity column, calculated from peak area” value in assay [1] (20 nmol injected, PBS pH 7.4 wash, eluted onto C-18) is reported as “approximately 1.2 nmoles”. In assay [1] (flow rate 0.2 ml/min to 5 ml/min), the “effect of injection flow rate on amount of peptide bound/recovered” value is “did not affect the recovery”. Also, the “amount of bound peptide at saturation, calculated from peak height” value in assay [1] (increasing quantities injected) was “about 1.2 nmoles”. On to “TVTEKPE (OTHER INFORMATION: Description of Artificial Sequence:Protein fragment derived from the tryptic digest of protein A and G) [peptide from recombinant Protein G digest]”, for which the “selected as binder” value in the assay on mouse IgG (Fc fragment) is on record as “identified”.

In the case of “TVTEKPEV (immobilized on POROS; OTHER INFORMATION: Description of Artificial Sequence: Synthetic peptide corresponding to a part of the Fc binding domain of recombinant protein G)”, the “specificity of IgG binding from human serum” value with IgG (pH 8, immobilized on POROS via N-terminal end) is recorded as “comparable specificity as the POROS™-Protein A conjugate”. GAQGHTVEK [… (SEQ ID NO: 9), simplified analog of the heme peptide] showed an IgG binding capacity (mg/ml column volume) in assay [4] of 5.
